Here are results for four molecules from patent publication US20220034873A1, “POLYMERIC CHROMOPHORES, COMPOSITIONS COMPRISING THE SAME, AND METHODS OF PREPARING AND USING THE SAME” (North Carolina State University, priority 2018, published 2022).

A short description of data set [1]: Absorption and emission spectra of dyes D1-D3 and dye-loaded copolymers F1-F3. The data set is classed as physicochemical. The source says:
Measurements of Absorption and Emission Spectra. The target dye-loaded copolymers F1-F3 were then subjected to investigations of their spectroscopic properties in both organic solvents and aqueous solution. […] Attaching to the 120-kDa amphiphilic copolymer drastically enhances the water solubility of BODIPY D1 and chlorin D2 without strong perturbation on the spectroscopic properties. The emission band for F1 and F2 in water remains the same as the ones measured in organic solutions, showing minimal dye-dye interaction is involved in aqueous solution of F1 and F2 at μM concentration. […] This negative result may be because of the inappropriate size of the copolymer backbone. Larger polymers may be required to encapsulate large hydrophobic chromophores like the phthalocyanine D3.
General Methods. All chemicals obtained commercially were used as received unless otherwise noted. Reagent-grade solvents (CH2Cl2, THF, methanol) and HPLC-grade water were used as received. NMR data was measured in a solution of CDCl3 unless otherwise noted. Noncommercial compounds 1, 2, and 4 were prepared following literature procedures. Analytical SEC experiments were performed with PLgel 10000 Å SEC column, eluted with ACS grade THF (stablized with 400 ppm of BHT) at 35° C. with a flow rate at 1 mL/min. Samples were detected with Agilent 1260 infinity refractive index detector. Absorption spectra were measured on Agilent 8453 and Shimadzu UV1800 instruments using dilute […] solutions of the compound in UV transparent (e.g., quartz) cuvettes versus a solvent blank at room temperature.

The conditions of data set [2]: cited from earlier work.

`CCCCCCCc1cc2c(cc1CCCCCCC)-c1nc-2nc2[nH]c(nc3nc(nc4[nH]c(n1)c1cc(CCCCCCC)c(CCCCCCC)cc41)-c1cc(C#Cc4ccc(CC(=O)NN)cc4)ccc1-3)c1cc(CCCCCCC)c(CCCCCCC)cc21` [Polymer D3, 2-[4-(N-Aminocarbamoyl)methylphenylethynyl]-9,10,16,17,23,24-hexaheptylphthalocyanine] returned a λabs max in data set [1] (in toluene) of 702 nm.
As to `CCN(CC)c1ccc2c(c1)Oc1cc(N(CC)CC)ccc1C21c2ccccc2C(=O)N1N` [Rhodamine-B hydrazide], the “change in absorption or fluorescence spectra” value in data set [2] (only with Cu(II) and Hg(II) among the cations tested, aqueous solution) is given as “significant change in absorption or fluorescence spectra”. In addition, the “Cu(II) concentration detected quantitatively” value in data set [2] (selective detection of Cu(II) in aqueous solution) is 10^−7 M.
In data set [1] (in CH2Cl2, room temperature), `Cc1cc(C)c(-c2c3nc(c(-c4ccc(C(=O)NN)cc4)c4ccc(cc5nc(cc6ccc2[nH]6)CC5(C)C)[nH]4)C=C3)c(C)c1` [Polymer D2, 5-[4-(N-Aminocarbamoyl)phenyl]-10-Mesityl-18,18-dimethylchlorin] gave a λabs max of 640 nm.
The same measure, in the same setting: for `Cc1cc(C)c(C2=C3C=CC=[N+]3[B-](F)(F)n3cc(C#CCCCCC(=O)NN)cc32)c(C)c1` [Polymer D1, 2-[6-(N-Aminocarbamoyl)hex-1-yn-1-yl]-8-mesityl-4,4-difluoro-4-bora-3a,4a-diaza-s-indacene] the value was 543 nm.
